Experimental data as given in US9926306B2, “Inhibition of MCL-1 and/or BFL-1/A1” (Dana-Farber Cancer Institute, Inc., priority 2012, dated 2018).

Assays:
[1] = tested on: BCL-XL-rescued p185+Arf−/−Mcl-1−/− CML cells; assay: Cell viability (CellTiter-Glo), BCL-XL-dependent leukemia cells; format: cell-based, murine; details: Mus musculus, 24 h
Experimental: Cell viability was assayed at 24 h by addition of CellTiter-Glo reagent according to the manufacturer's protocol (Promega), and luminescence was measured using a SpectraMax M5 microplate reader (Molecular Devices). […] Viability and caspase assays were performed in duplicate, repeated at least twice with independent cell cultures, and the data normalized to vehicle-treated control wells.

[2] = tested on: wild-type or Bax−/−Bak−/− MEFs; assay: Cell viability (CellTiter-Glo), MEFs; format: cell-based, mouse; details: non-malignant fibroblasts, 24 h
Experimental: (§1) p185^+Arf^−/− and MCL-1 or BCL-XL-rescued p185^+Arf^−/−Mcl^−/− cells were maintained in RPMI 1640 (ATCC) supplemented with 10% (v/v) FBS, 100 U/mL penicillin, 100 μg/mL streptomycin, 0.1 mM MEM non-essential amino acids and 50 μM β-mercaptoethanol. Mouse embryonic fibroblasts (MEFs) cells were maintained in DMEM high glucose (Invitrogen) supplemented with 10% (v/v) FBS, 100 U/mL penicillin, 100 μg/mL streptomycin, 2 mM L-glutamine, 50 mM HEPES, 0.1 mM MEM non-essential amino acids and 50 μM β-mercaptoethanol. […] Cell viability was assayed at 24 h by addition of CellTiter-Glo reagent according to the manufacturer's protocol (Promega), and luminescence was measured using a SpectraMax M5 microplate reader (Molecular Devices). Caspase 3/7 activation was assayed at 8 h by addition of Caspase-Glo 3/7 reagent according to manufacturer's protocol (Promega), and luminescence measured using a SpectraMax M5 microplate reader. Viability and caspase assays were performed in duplicate, repeated at least twice with independent cell cultures, and the data normalized to vehicle-treated control wells.

[3] = biological target: T1, MCL-1ΔNΔC (Homo sapiens (Human), UniProt Q07820); assay: BAX-mediated liposomal release assay, suppression by MCL-1; format: biochemical
Experimental: (§2) Liposomes were prepared and release assays performed as previously described^46,47. Liposomal composition reflects a mixture of the following molar percentages of lipids (Avanti Polar Lipids): phosphatidylcholine, 48%; phosphatidylethanolamine, 28%; phosphatidylinositol, 10%; dioleoyl phosphatidylserine, 10%; and tetraoleoyl cardiolipin, 4%. Aliquots of mixed lipids (1 mg total) are stored in glass at −20° C. under nitrogen, and before use, resuspended in liposome assay buffer (10 mM HEPES, 200 mM KCl, 1 mM MgCl2, pH 7) containing 12.5 mM of the fluorescent dye ANTS (8-aminonaphthalene-1,3,6-trisulfonic acid, disodium salt) and 45 mM of the quencher DPX (p-xylene-bis-pyridinium bromide. The resulting slurry is vortexed for 10 min and freeze-thawed five times in liquid nitrogen and a 40° C. water bath, respectively. The solution is then passed through an Avanti Mini-Extruder Set (#610000) equipped with a 100 nm filter, followed by passage through a Sepharose column (GE Healthcare) to remove residual ANTS/DPX.

[4] = biological target: T1, MCL-1ΔNΔC; assay: Competitive fluorescence polarization binding assay, MCL-1; details: competitive FP
Experimental: Here, we deployed MCL-1 SAHBA as a high fidelity screening tool to determine if its potency and specificity-of-action could be harnessed for small molecule discovery. […] A compilation of 71,296 small molecules was screened for the capacity to displace FITC-MCL-1 SAHBA from recombinant MCL-1ΔNΔC (aa 172-327) (FIG. 4).
Fluorescence polarization assays (FPA) were performed as previously described^38,39. […] Fluorescence polarization was measured at equilibrium and IC50 values calculated by nonlinear regression analysis of competitive binding curves using Prism software (Graphpad).

[5] = tested on: MCL-1-rescued p185+Arf−/−Mcl-1−/− CML cells; assay: Cell viability (CellTiter-Glo), MCL-1-dependent leukemia cells; format: cell-based, murine; details: MCL-1-dependent cells
Excerpt: A challenges in developing and applying molecular antagonists for BCL-2 family anti-apoptotic proteins is the variable expression of multiple homologues. That is, a cancer cell will only be susceptible to a selective anti-apoptotic inhibitor if the cell is especially dependent on that particular survival protein. […] To test MIM1's activity and specificity in cancer cells, we employed murine p185^+Arf^−/−Mcl-1^−/− chronic myelogenous leukemia (CML) cells that are unable to survive unless reconstituted with MCL-1, reflecting a stringent system for assessing MCL-1 dependence.
p185^+Arf^−/− and MCL-1 or BCL-XL-rescued p185^+Arf^−/−Mcl^−/− cells were maintained in RPMI 1640 (ATCC) supplemented with 10% (v/v) FBS, 100 U/mL penicillin, 100 μg/mL streptomycin, 0.1 mM MEM non-essential amino acids and 50 μM β-mercaptoethanol. […] Cell viability was assayed at 24 h by addition of CellTiter-Glo reagent according to the manufacturer's protocol (Promega), and luminescence was measured using a SpectraMax M5 microplate reader (Molecular Devices). Caspase 3/7 activation was assayed at 8 h by addition of Caspase-Glo 3/7 reagent according to manufacturer's protocol (Promega), and luminescence measured using a SpectraMax M5 microplate reader. […]

[6] = tested on: parental p185+Arf−/− CML cells; assay: Cell viability and CalcuSyn synergy, parental leukemia cells; format: cell-based, murine; details: Mus musculus; parental cells expressing both MCL-1 and BCL-XL; read-out: IC50, cytotoxicity
Experimental: as §1

[7] = tested on: BCL-XL-rescued p185+Arf−/−Mcl-1−/− CML cells; assay: Caspase 3/7 activation (Caspase-Glo), BCL-XL-dependent leukemia cells; format: cell-based, murine; details: 8 h
Experimental: p185^+Arf^−/− and MCL-1 or BCL-XL-rescued p185^+Arf^−/−Mcl^−/− cells were maintained in RPMI 1640 (ATCC) supplemented with 10% (v/v) FBS, 100 U/mL penicillin, 100 μg/mL streptomycin, 0.1 mM MEM non-essential amino acids and 50 μM β-mercaptoethanol. […] Caspase 3/7 activation was assayed at 8 h by addition of Caspase-Glo 3/7 reagent according to manufacturer's protocol (Promega), and luminescence measured using a SpectraMax M5 microplate reader. Viability and caspase assays were performed in duplicate, repeated at least twice with independent cell cultures, and the data normalized to vehicle-treated control wells.

[8] = tested on: wild-type or Bax−/−Bak−/− MEFs; assay: Caspase 3/7 activation (Caspase-Glo), MEFs; format: cell-based, mouse; details: 8 h
Experimental: as §1

[9] = biological target: BCL-XLΔC (Homo sapiens (Human), UniProt Q07817); assay: BAX-mediated liposomal release assay, suppression by BCL-XL; format: biochemical
Experimental: as §2

T1 sequence (Q07820 172-327, stated change not applied): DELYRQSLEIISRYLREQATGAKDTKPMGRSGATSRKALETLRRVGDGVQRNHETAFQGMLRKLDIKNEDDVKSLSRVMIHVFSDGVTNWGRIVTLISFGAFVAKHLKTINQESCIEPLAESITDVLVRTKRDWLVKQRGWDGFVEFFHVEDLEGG
Chain of BCL-XLΔC (Q07817 1-212): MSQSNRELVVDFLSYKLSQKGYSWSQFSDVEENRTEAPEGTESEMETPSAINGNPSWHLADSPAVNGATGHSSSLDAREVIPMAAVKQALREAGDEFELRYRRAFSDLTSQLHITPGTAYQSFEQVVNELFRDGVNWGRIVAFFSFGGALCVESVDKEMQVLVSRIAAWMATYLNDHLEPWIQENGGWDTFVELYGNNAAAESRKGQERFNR

CN(C)CC[C@H](CSc1ccccc1)Nc1ccc(S(=O)(=O)NC(=O)c2ccc(N3CCN(Cc4ccccc4-c4ccc(Cl)cc4)CC3)cc2)cc1[N+](=O)[O-] [ABT-737, N-(4-(4-((4′-chloro(1,1′-biphenyl)-2-yl)methyl)piperazin-1-yl)benzoyl)-4-(((1R)-3-(dimethylamino)-1-((phenylsulfanyl)methyl)propyl)amino)-3-nitrobenzenesulfonamide, reference compound]
IC50 [1]: 1.6 µM | effect on viability / toxicity [2]: no significant effect | blockade of MCL-1ΔNΔC suppression of tBID-induced BAX activation [3]: no effect | MCL-1ΔNΔC binding activity [4]: no activity | effect on viability / cytotoxicity [5]: no effect | IC50 [6]: 5.1 µM | caspase 3/7 activation [7]: dose-responsive caspase 3/7 activation | caspase 3/7 activation [8]: no observed caspase 3/7 activation | blockade of BCL-XLΔC suppression of tBID-induced BAX activation [9]: negates
